Reference: ChEMBL document CHEMBL6121008, “New series of 3-pyridyl-1,3-thiazoles: In vitro and in vivo anti-Trypanosomatidae profile, in vitro and in silico mechanism of action approach” (Eur J Med Chem, 2025)
pIC50: −log10 of the molar value.

What was measured:
Leishmania infantum [1] = test: (§1) Antiparasitic activity against Leishmania infantum MHOM/MA/67/ITMAP-263 promastigote expressing Escherichia coli beta-galactosidase assessed as reduction in parasitic growth using CPRG as substrate preincubated with compound for 72 hrs followed by substrate addition and measured after 10 mins by Spectrophotometric analysis; type: functional, organism-based; settings: for pIC50: Leishmania infantum, MHOM/MA/67/ITMAP-263, read-out: IC50
[2] = Selectivity index, ratio of CC50 for mouse RAW264.7 cells to IC50 for antiparasitic activity against Leishmania infantum amastigote expressing Escherichia coli beta-galactosidase infected in mouse RAW264.7 cells; type: toxicity; settings: read-out: Selectivity Index
[3] = Selectivity index, ratio of CC50 for mouse RAW264.7 cells to IC50 for antiparasitic activity against Leishmania amazonensis amastigote expressing Escherichia coli beta-galactosidase infected in mouse RAW264.7 cells; type: toxicity; settings: read-out: Selectivity Index
[4] = Cytotoxicity against mouse L929 cells assessed as inhibition of cell viability incubated for 96 hrs by MTT assay; type: toxicity, cell-based
Trypanosoma cruzi [5] = test: (§2) Antiparasitic activity against amastigote form of Trypanosoma cruzi Tulahuen expressing Escherichia coli beta-galactosidase infected in mouse L929 cells assessed as reduction in parasitic growth using CPRG as substrate pretreated with compound for 96 hrs followed by substrate addition and measured after 16 to 20 hrs by Spectrophotometric analysis; type: functional, organism-based
Leishmania amazonensis [6] = test: (§3) Antiparasitic activity against Leishmania amazonensis amastigote expressing Escherichia coli beta-galactosidase infected in mouse RAW264.7 cells assessed as reduction in parasitic growth using CPRG as substrate preincubated with compound for 24 hrs followed by substrate addition and measured after 2 to 6 hrs by Spectrophotometric analysis; type: functional, organism-based; settings: for pIC50: Leishmania amazonensis, RAW264.7, read-out: IC50; for IC50: raw264.7
Trypanosoma cruzi [7] = test: as §2, with “trypomastigote” for “amastigote”; type: functional, organism-based
Leishmania amazonensis [8] = test: as §1, with “amazonensis WHOM/00 LTB 0016” for “infantum MHOM/MA/67/ITMAP-263”; type: functional, organism-based; settings: for pIC50: Leishmania amazonensis, WHOM/00 LTB 0016, read-out: IC50
Leishmania infantum [9] = test: as §3, with “infantum” for “amazonensis”; type: functional, organism-based; settings: for pIC50: Leishmania infantum, RAW264.7, read-out: IC50; for IC50: raw264.7
[10] = Cytotoxicity against mouse RAW264.7 cells assessed as inhibition of cell viability incubated for 48 hrs by MTT assay; type: toxicity, cell-based
[11] = Selectivity index, ratio of CC50 for mouse L929 cells to IC50 for antiparasitic activity against trypomastigote and amastigote form of Trypanosoma cruzi Tulahuen expressing Escherichia coli beta-galactosidase infected in mouse L929 cells; type: toxicity; settings: read-out: Selectivity Index
[12] = Selectivity index, ratio of CC50 for mouse RAW264.7 cells to IC50 for antiparasitic activity against Leishmania infantum MHOM/MA/67/ITMAP-263 promastigote expressing Escherichia coli beta-galactosidase; type: toxicity; settings: read-out: Selectivity Index
[13] = Selectivity index, ratio of CC50 for mouse RAW264.7 cells to IC50 for antiparasitic activity against Leishmania amazonensis WHOM/00 LTB 0016 promastigote expressing Escherichia coli beta-galactosidase; type: toxicity; settings: read-out: Selectivity Index
Trypanosoma cruzi [14] = test: Antiparasitic activity against trypomastigote form of Trypanosoma cruzi Y assessed as appearance of twisted bodies by Electron micrographic analysis; type: functional, organism-based

SMILES | IC50 (Leishmania infantum [1]) | selectivity ratio [2] | selectivity ratio [3] | CC50 at 96 h [4] | pIC50 (Trypanosoma cruzi [5]) | pIC50 (Leishmania amazonensis [6]) | pIC50 (Trypanosoma cruzi [7]) | IC50 (Leishmania amazonensis [8]) | pIC50 (Leishmania infantum [9]) | CC50 at 48 h [10] | selectivity ratio [11] | IC50 (Leishmania amazonensis [6]) | pIC50 (Leishmania infantum [1]) | selectivity ratio [12] | selectivity ratio [13] | pIC50 (Leishmania amazonensis [8]) | IC50 (Leishmania infantum [9]) | Activity (Trypanosoma cruzi [14])
C/C(=N\N=c1/[nH]c(-c2ccc([N+](=O)[O-])cc2)cs1)c1cccnc1 | Not_active | 1.4 | 0.2 | > 295 µM | 4.23 | 3.53 | 4.23 | Not_active | 4.34 | 63.6 µM | > 5 | – | – | – | – | – | – | –
C/C(=N\N=c1\scc(-c2cccc([N+](=O)[O-])c2)n1C)c1cccnc1 | Not_active | 0.5 | – | 13.3 µM | 6.00 | – | 6.00 | Not_active | 4.48 | 17.5 µM | 13.3 | Not_active | – | – | – | – | – | –
C[C@@H]1[C@H](O)[C@@H](C)/C=C/C=C/C=C/C=C/C=C/C=C/C=C/[C@H](O[C@@H]2O[C@H](C)[C@@H](O)[C@H](N)[C@@H]2O)C[C@@H]2O[C@](O)(C[C@@H](O)C[C@@H](O)[C@H](O)CC[C@@H](O)C[C@@H](O)CC(=O)O[C@H]1C)C[C@H](O)[C@H]2C(=O)O [AMPHOTERICIN B] | – | 58.3 | 87.5 | – | – | 7.40 | – | – | 7.22 | 3.5 µM | – | – | 6.70 | 17.5 | 35 | 7.00 | – | –
C/C(=N\N=c1\scc(-c2ccc(F)cc2)n1-c1ccccc1)c1cccnc1 | – | 3.8 | 6.1 | 14.4 µM | 5.12 | 5.17 | 5.12 | – | 4.97 | 41.2 µM | 1.9 | – | 4.52 | 1.4 | 5.7 | 5.14 | – | –
C/C(=N\N=c1\scc(-c2ccc([N+](=O)[O-])cc2)n1-c1ccccc1)c1cccnc1 | – | 2.4 | 2.9 | 25.8 µM | 5.54 | 5.11 | 5.54 | – | 5.04 | 22.1 µM | 8.9 | – | 3.93 | 0.2 | 1.2 | 4.73 | – | –
C/C(=N\N=c1\scc(-c2ccc(C)cc2)n1-c1ccccc1)c1cccnc1 | – | 1.2 | 2.6 | 7.3 µM | 5.47 | 5.14 | 5.47 | – | 4.79 | 18.7 µM | 2.1 | – | 4.83 | 1.3 | 4.2 | 5.36 | – | –
CNC(=S)N/N=C(\C)c1cccnc1 | Not_active | – | 0.8 | – | – | 3.74 | – | – | – | 148 µM | – | – | – | – | 0.4 | 3.47 | Not_active | –
C/C(=N\NC(=S)Nc1ccccc1)c1cccnc1 | – | 4.5 | – | – | – | – | – | – | 4.68 | – | – | – | 4.66 | 4.4 | 13.7 | 5.15 | – | –
C/C(=N\N=c1/[nH]c(-c2ccc(C)cc2)cs1)c1cccnc1 | Not_active | – | 0.8 | 293 µM | 5.41 | 4.48 | 5.41 | – | – | 25 µM | 75.1 | – | – | – | < 0.1 | < 3.49 | Not_active | Dose-dependent-effect
C/C(=N\N=c1\scc(-c2ccccc2)n1-c1ccccc1)c1cccnc1 | – | 3.3 | 2.2 | 11.6 µM | 5.24 | 4.87 | 5.24 | – | 5.05 | 29.4 µM | 2 | – | 4.51 | 0.9 | 1.9 | 4.81 | – | –
COc1ccc(-c2cs/c(=N/N=C(\C)c3cccnc3)n2C)cc1 | – | 1.2 | 1 | 6.2 µM | 5.70 | 4.83 | 5.70 | – | 4.91 | 14.7 µM | 3.1 | – | 4.70 | 0.7 | 0.4 | 4.41 | – | –
C/C(=N\N=c1/[nH]c(-c2ccc(F)cc2)cs1)c1cccnc1 | Not_active | – | 0.6 | > 320 µM | 5.42 | 4.35 | 5.42 | Not_active | – | 52.3 µM | > 84.2 | – | – | – | – | – | Not_active | –
C/C(=N\N=c1\scc(-c2cccc([N+](=O)[O-])c2)n1-c1ccccc1)c1cccnc1 | – | > 20.8 | > 25.6 | 18.3 µM | 5.54 | 5.03 | 5.54 | – | 4.94 | > 240 µM | 6.3 | – | 4.63 | > 10.3 | > 37 | 5.19 | – | –
C/C(=N\N=c1\scc(-c2ccc(F)cc2)n1C)c1cccnc1 | – | 1.2 | 0.9 | 15.6 µM | 5.43 | 4.76 | 5.43 | – | 4.90 | 15 µM | 4.2 | – | 4.68 | 0.7 | 0.5 | 4.49 | – | –
C/C(=N\N=c1\scc(-c2ccc([N+](=O)[O-])cc2)n1C)c1cccnc1 | – | – | – | 88.6 µM | 5.60 | – | 5.60 | – | – | 41.2 µM | 35.4 | Not_active | 3.70 | 0.2 | 0.2 | 3.78 | Not_active | –
C/C(=N\N=c1\scc(-c2ccc(C)cc2)n1C)c1cccnc1 | – | 2 | 1.2 | 23 µM | 5.31 | 4.51 | 5.31 | – | 4.74 | 36.2 µM | 4.7 | – | 4.27 | 0.7 | 0.5 | 4.12 | – | –
COc1ccc(-c2cs/c(=N/N=C(\C)c3cccnc3)n2-c2ccccc2)cc1 | – | 2.3 | 3.7 | 5.2 µM | > 6.70 | 5.22 | > 6.70 | – | 5.02 | 22 µM | > 26 | – | 4.78 | 1.3 | 4.2 | 5.28 | – | –
C/C(=N\NC(N)=S)c1cccnc1 | Not_active | 1.3 | 0.8 | – | – | 3.56 | – | Not_active | 3.79 | 213 µM | – | – | – | – | – | – | – | –
CCCCCCCCCCCCCCCCOP(=O)([O-])OCC[N+](C)(C)C [MILTEFOSINE] | – | 12.7 | 13.1 | – | – | 5.77 | – | – | 5.77 | – | – | – | 5.49 | 6.8 | 6.8 | – | – | –
